Patent US20250041294A1, “Synergistic compositions for use in the treatment of cancer” (Sartar Therapeutics Oy, priority 2021, published 2025)
Like-named read-outs stand apart in the source and are kept apart here.

Legend:
Format in all cases: cell-based
GOT3 cell line = test: High throughput drug sensitivity and resistance test (CellTiter-Glo, 72 hours); conditions: for GOT3 cell line: DSS(combo (BAY2666605))-DSS(drug): drug combined with BAY2666605 (40 nM) minus drug alone
Description: (§1) Cell lines. PDE3A-positive (GIST882, SA4, and GOT3) and PDE3A-negative cell lines (93TT449, 94T778, LPS141, MLS17656-92, MLS402-91, and SW872) were cultured in RPMI Medium 1640 (Gibco) with 5-, 10- or 20% fetal bovine serum (FBS, gibco), 100 U/mL of penicillin, 100 […] and 0.03 mg/mL of L-glutamine (Pen Strep Glut, Gibco, 10378-016) in a humidified, 5% CO2 atmosphere at 37° C.
(§2) High throughput drug sensitivity and resistance test. A sensitivity and resistance of cancer cell lines to 528 compounds were investigated in 9 cell lines (GIST882, SA4, GOT3, 93TT449, 94T778, LPS141, MLS17656-92, MLS402-91, and SW872). In addition, same compounds were investigated together with anagrelide hydrochloride (100 nM) treatment in the PDE3A low expressing cell lines SA4 and GOT3, and with BAY2666605 (40 nM) in all PDE3A-positive cell lines GIST882, SA4 and GOT3. The compounds were dissolved in 100% dimethyl sulfoxide or water and plated in 10-fold dilutions covering a 10,000-fold concentration range on flat clear bottom 384-well microplates as described in detail earlier (Pulkka O P, et al 2019). A cell viability was measured after 72 hours using CellTiter-Glo Cell Viability assay (Promega Inc.) and PHERAstar FS plate reader (BMG Labtech). The data were normalized to negative (0.01% dimethyl sulfoxide only) and positive (100 μmol/L benzethonium chloride) controls.
(§3) A four-parameter logistic dose-response curves were estimated by using the Marquardt-Levenberg algorithm and Breeze analysis platform. Drug responses to the test compounds were measured using the drug sensitivity score (DSS). Drug synergy partners, which were common in investigated cell lines were identified as following: DSS value of a single agent was subtracted from the DSS value of anagrelide-drug combination in single cell lines. […] The analysis was repeated by using BAY2666605 as a PDE3A modulator.

SA4 cell line = test: as above; conditions: for SA4 cell line: DSS(combo (BAY2666605))-DSS(drug): drug combined with BAY2666605 (40 nM) minus drug alone
Description: as §1, §2, §3

GIST882 cell line = test: as above; conditions: drug combined with BAY2666605 (40 nM) minus drug alone
Description: High throughput drug sensitivity and resistance test. […] In addition, same compounds were investigated together with anagrelide hydrochloride (100 nM) treatment in the PDE3A low expressing cell lines SA4 and GOT3, and with BAY2666605 (40 nM) in all PDE3A-positive cell lines GIST882, SA4 and GOT3. […] A cell viability was measured after 72 hours using CellTiter-Glo Cell Viability assay (Promega Inc.) and PHERAstar FS plate reader (BMG Labtech). The data were normalized to negative (0.01% dimethyl sulfoxide only) and positive (100 μmol/L benzethonium chloride) controls.
as §3

[1] = system: GIST882, GOT3 and SA4 cell lines; test: High throughput drug sensitivity and resistance test, average over cell lines (BAY2666605 combination); conditions: for Average DSS (aDSS): BAY2666605 combination, average of GIST882, SA4 and GOT3, aDSS higher than 3.0 = synergy
Description: as §1, §2, §3

GOT3 and SA4 cell lines = test: High throughput drug sensitivity and resistance test, average over cell lines (anagrelide combination)
Description: as §1, §2, §3

[2] = with anagrelide (GOT3, SA4) or BAY2666605 (GIST882, GOT3, SA4)
[3] = drug combined with anagrelide hydrochloride (100 nM) minus drug alone, GOT3
[4] = drug combined with anagrelide hydrochloride (100 nM) minus drug alone, SA4
[5] = anagrelide combination, average of SA4 and GOT3, aDSS higher than 3.0 = synergy

| Structure (SMILES) | synergy in high-throughput screening (in words) [1, 2] | GOT3 cell line: DSS(combo (anagrelide))-DSS(drug) (GOT3 cell line; [3]) | SA4 cell line: DSS(combo (anagrelide))-DSS(drug) (SA4 cell line; [4]) | Average DSS (aDSS) (GOT3 and SA4 cell lines; [5]) | also measured |
| --- | --- | --- | --- | --- | --- |
| C[C@@]1(C(=O)Nc2ccc(F)nc2)CCCN1c1nc(Nc2cc(C3CC3)n[nH]2)c2cccn2n1 [BMS-754807] | synergistic | – | – | – | GOT3 cell line: DSS(combo (BAY2666605))-DSS(drug) (GOT3 cell line; GOT3): 4.4; SA4 cell line: DSS(combo (BAY2666605))-DSS(drug) (SA4 cell line; SA4): 7.5; GIST882 cell line: DSS(combo (BAY2666605))-DSS(drug) (GIST882 cell line): 0.7; Average DSS (aDSS) [1]: 4.2 |
| CNC(=O)c1nn(C)c2c1C(C)(C)Cc1cnc(Nc3ccc(N4CCN(C)CC4)cc3)nc1-2 [Milciclib, milciclib] | synergistic | 3.6 | 3.9 | 3.75 | – |
| O=C1CN2Cc3c(ccc(Cl)c3Cl)N=C2N1 [Anagrelide, anagrelide] | – | – | – | – | DSS (drug sensitivity score) (GOT3 cell line; Anagrelide alone, GOT3): 9.2; IC50 (GOT3 cell line; Anagrelide alone, GOT3, cell viability 72 hours): 84.3 nM; DSS (drug sensitivity score) (SA4 cell line; Anagrelide alone, SA4): 15.4; IC50 (SA4 cell line; Anagrelide alone, SA4, cell viability 72 hours): 73.5 nM |
| COc1ncc(-c2ccc3nccc(-c4ccnnc4)c3c2)cc1NS(=O)(=O)c1ccc(F)cc1F [Omipalisib, omipalisib] | synergistic | – | – | – | GOT3 cell line: DSS(combo (BAY2666605))-DSS(drug) (GOT3 cell line; GOT3): −0.4; SA4 cell line: DSS(combo (BAY2666605))-DSS(drug) (SA4 cell line; SA4): 6.5; GIST882 cell line: DSS(combo (BAY2666605))-DSS(drug) (GIST882 cell line): 7.4; Average DSS (aDSS) [1]: 4.5 |
| CC(C)Oc1ccc(C(=O)N[C@H](CNC(=O)CN(C)C)Cc2ccc(-c3cn4cccc([C@H](C)O)c4n3)cc2)cc1Cl [GSK923295] | synergistic | 2.8 | 3.9 | 3.35 | – |
| O=C(/C=C\n1cnc(-c2cc(C(F)(F)F)cc(C(F)(F)F)c2)n1)NNc1cnccn1 [Selinexor] | synergistic | – | – | – | GOT3 cell line: DSS(combo (BAY2666605))-DSS(drug) (GOT3 cell line; GOT3): −0.7; SA4 cell line: DSS(combo (BAY2666605))-DSS(drug) (SA4 cell line; SA4): 5.4; GIST882 cell line: DSS(combo (BAY2666605))-DSS(drug) (GIST882 cell line): 7.9; Average DSS (aDSS) [1]: 4.2 |
| CC(C)[C@H](C(=O)Nc1ccc(C(=O)NO)cc1)c1ccccc1 [AR-42] | synergistic | −0.8 | 12.9 | 6.05 | – |
| CO[C@H]1CC[C@H](N2C(=O)CNc3ncc(-c4ccc(C(C)(C)O)nc4)nc32)CC1 [CC-223] | synergistic | 0.8 | 5.6 | 3.2 | – |
| C=C(c1ccc(C(=O)O)cc1)c1cc2c(cc1C)C(C)(C)CCC2(C)C [Bexarotene, bexarotene] | synergistic | – | – | – | GOT3 cell line: DSS(combo (BAY2666605))-DSS(drug) (GOT3 cell line; GOT3): −1.1; SA4 cell line: DSS(combo (BAY2666605))-DSS(drug) (SA4 cell line; SA4): 6.4; GIST882 cell line: DSS(combo (BAY2666605))-DSS(drug) (GIST882 cell line): 6.3; Average DSS (aDSS) [1]: 3.9 |
| COc1c(OCCCN2CCOCC2)ccc2c1N=C(NC(=O)c1cnc(N)nc1)N1CCN=C21 [Copanlisib, copanlisib] | synergistic | – | – | – | GOT3 cell line: DSS(combo (BAY2666605))-DSS(drug) (GOT3 cell line; GOT3): −1.4; SA4 cell line: DSS(combo (BAY2666605))-DSS(drug) (SA4 cell line; SA4): 8.1; GIST882 cell line: DSS(combo (BAY2666605))-DSS(drug) (GIST882 cell line): 6.8; Average DSS (aDSS) [1]: 4.5 |
| CC(C)(C)C[C@@H]1N[C@@H](C(=O)N[C@H]2CC[C@H](O)CC2)[C@H](c2cccc(Cl)c2F)[C@]12C(=O)Nc1cc(Cl)ccc12 [SAR405838] | synergistic | 0.1 | 7.8 | 3.95 | – |
| COc1ccc(C[C@H](NC(=O)[C@H](C)NC(=O)CN2CCOCC2)C(=O)N[C@@H](Cc2ccccc2)C(=O)C2(C)CO2)cc1 (stereo in doubt) [ONX-0914] | synergistic | – | – | – | GOT3 cell line: DSS(combo (BAY2666605))-DSS(drug) (GOT3 cell line; GOT3): 0.9; SA4 cell line: DSS(combo (BAY2666605))-DSS(drug) (SA4 cell line; SA4): 4.6; GIST882 cell line: DSS(combo (BAY2666605))-DSS(drug) (GIST882 cell line): 8.4; Average DSS (aDSS) [1]: 4.6 |
| CN(C)C[C@@H]1CCn2cc(c3ccccc32)C2=C(C(=O)NC2=O)c2cn(c3ccccc23)CCO1 [Ruboxistaurin] | synergistic | 1.8 | 4.8 | 3.3 | – |
| CC(C)[C@@H](CS(=O)(=O)C(C)C)N1C(=O)[C@@](C)(CC(=O)O)C[C@H](c2cccc(Cl)c2)[C@H]1c1ccc(Cl)cc1 [AMG-232] | synergistic | 0 | 6.2 | 3.1 | – |
| Cn1ncc(Cl)c1-c1cc(C(=O)N[C@H](CN)Cc2ccc(F)c(F)c2)oc1Cl [Uprosertib, uprosertib] | synergistic | 1.8 | 5.4 | 3.6 | – |
| COc1ccc(-c2ccc3c(N4CCOC[C@@H]4C)nc(N4CCOC[C@@H]4C)nc3n2)cc1CO [AZD8055] | synergistic | 1.5 | 5.9 | 3.7 | – |
| N[C@@H]1CCCN(c2c(/C=C3\SC(=O)NC3=O)cccc2-c2ccccc2)C1 [AZD1208] | synergistic | 0.3 | 7.1 | 3.7 | – |
| COc1ccc(-c2nc(N3CCOCC3)c3sc(CN(C)c4ncc(C(=O)NO)cn4)cc3n2)cn1 [CUDC-907] | synergistic | 0 | 10.8 | 5.4 | – |
| CNC(=O)c1ccccc1Nc1cc(Nc2ccc(N3CCOCC3)cc2OC)ncc1C(F)(F)F [VS-4718] | synergistic | 3.8 | 5.3 | 4.55 | – |
| Cn1cc(-c2cnn3c(N)c(Br)c([C@@H]4CCCNC4)nc23)cn1 [MK-8776] | – | – | – | – | GOT3 cell line: DSS(combo (anagrelide))-DSS(drug) (GOT3 cell line): 1.6; SA4 cell line: DSS(combo (anagrelide))-DSS(drug) (SA4 cell line): 4.8; Average DSS (aDSS) (GOT3 and SA4 cell lines): 3.2; synergy in high-throughput screening (in words) [1]: synergistic |
| CCN(CCO)CCCOc1ccc2c(Nc3cc(CC(=O)Nc4cccc(F)c4)[nH]n3)ncnc2c1 [AZD1152-HQPA] | synergistic | 3.4 | 5.9 | 4.65 | – |
| Nc1nccc(-c2c(-c3ccc(F)cc3)ncn2C2CCCCC2)n1 [PF-670462] | synergistic | 0.2 | 7.1 | 3.65 | – |
| CO[C@@H]1[C@H](N(C)C(=O)c2ccccc2)C[C@H]2O[C@]1(C)n1c3ccccc3c3c4c(c5c6ccccc6n2c5c31)C(=O)NC4 [Midostaurin, midostaurin] | – | 2.3 | 5.1 | 3.7 | – |
| Nc1nc2cc(-c3ccc4ncc(C(=O)N5CCOCC5)n4c3)ccc2o1 [Serabelisib, serabelisib] | synergistic | 1.9 | 5.8 | 3.85 | – |
| CC1(C)OCCn2c1nc1c(N3CCOCC3)nc(-c3cnc(N)nc3)nc12 [GDC-0084] | synergistic | 2.3 | 3.9 | 3.1 | – |
| C/C=C1\NC(=O)[C@H]2CSSCC/C=C/[C@H](CC(=O)N[C@H](C(C)C)C(=O)N2)OC(=O)[C@H](C(C)C)NC1=O [Romidepsin, romidepsin] | – | 1.4 | 6.3 | – | – |
